In this assay the test system is 521955-158-R2-J5-PDC complex spheroid viability. Put plainly: Anticancer human tumor 521955-158-R2-J5-PDC patient-derived pancreatic carcinoma cell line growth inhibition. The note with it: for viability, T/C: stronger effect = lower value; for IC50: curve of compound. The source says: Multicellular complex tumor spheroid response to LSD1 Inhibitor Iadademstat in combination with a variety of drugs and investigational agents in selected tumor cell lines
The current study was undertaken to assess response to LSD1 inhibitors in combination with standard-of-care drugs and investigational agents in solid tumor complex spheroid models as well as in the K-562 leukemia. Complex spheroids include a stromal component modeled by human endothelial cells (HUVEC) and fibroblasts modeled by human mesenchymal stem cells (MSCs). The concentration ranges selected for each drug and investigational agent were based upon clinically achievable concentrations if the clinical Cmax of the agent was known.
Compounds. The drugs and investigational agents used in this study are listed on Table 1. All of the agents used, including staurosporine (NSC755774) and gemcitabine (NSC613327), were obtained from the Developmental Therapeutics Program, NCI. FDA-approved anticancer drugs are available from the NCI at http://dtp.nci.nih.gov/branches/dscb/oncology_drugset_explanation.html. Drugs and investigational agents were >95% pure by proton nuclear magnetic resonance (NMR) and liquid chromatography/mass spectrometry (LC/MS). Stock solutions were prepared at 400x in DMSO, stored at -70 degrees C, and diluted in fresh medium prior to their use. The final concentration of DMSO in cell culture wells never exceeded 0.25% (v/v). The FDA-approved anticancer drug set is available from the Developmental Therapeutics Program at https://dtp.cancer.gov/organization/dscb/obtaining/available_plates.htm. All drugs and investigational agents were tested over a range starting from a high concentration at or near the clinical Cmax and decreasing in half-log increments. If the clinical Cmax for an agent had not been determined, the highest concentration tested was 10 microM.
Cell Lines. The patient-derived cancer cell (PDC) lines: 292921-168-R-J2-PDC, K24384-001-R-PDC, and 521955-158-R2-J5-PDC pancreatic carcinomas, 556581-035-R-J1 ovarian carcinoma, 324938-238-R-J1-PDC, 855422-203-R-J1-PDC and 883617-216-R-J1-PDC urothelial bladder carcinomas, 743489-274-T-PDC renal cell carcinoma, 138582-R-J1 Merkel cell tumor, K60290-347-R-J1 and K57222-313-R-J1-PDC glioblastomas, 653999-131-R-J2-PDC, LG0703-F948-PDC, and 349418-098-R-PDC non-small cell lung carcinomas, 885512-296-R-J2-PDC, 171881-019-R-J1-PDC breast carcinomas and 186277-243-T-J2-PDC and 233499-124-R-J2-PDC colon carcinomas were obtained from the NCI Patient-Derived Models Repository (PDMR, https://pdmr.cancer.gov). The established cell lines NCI/ADR-RES (RRID:CVCL_14520 and OVCAR-5 (RRID:CVCL_1628) ovarian carcinomas, 786-O (RRID:CVCL_1051) and A498 (RRID:CVCL_A498) renal cell carcinoma, NCI-H211 (ATCC, cat. CRL-5824; RRID:CVCL_1529), NCI-H196 (ATCC, cat. CRL-5823, RRID:CVCL_1509), SW 1271 (ATCC, cat. CRL-2177, RRID:CVCL_1716) and NCI-H1876 (ATCC, cat. CRL-5902, RRID:CVCL_1503) small cell lung carcinomas, MDA-MB-231 (RRID:CVCL_0062) and MDA-MB-468 (RRID:CVCL_0419)breast carcinomas (10-12). Pooled donor human umbilical vein endothelial cells (HUVEC, Lonza, cat. CC-2519) and human mesenchymal stem cells (hMSC, Lonza, cat. PT-2501) were purchased from Lonza (Walkersville, MD).
Cell Culture. All cells were maintained in an incubator at 37 degrees C and 5% CO2 with 95% humidity. The PDC lines were cultured according to standard operating procedures established by the NCI PDMR (https://pdmr.cancer.gov). Briefly all PDCs were thawed and cultured in Matrigel-coated flasks prepared with a working solution of 1X Ham's F-12 nutrient mix, without supplementation (Invitrogen, Waltham, MA, cat. 11765054), 100 U/mL penicillin-streptomycin (Invitrogen, cat. 15140122), and 2.5% Matrigel (Corning Inc., Corning, NY, cat. 354248) for the first three passages. […]

SMILES strings stand for the structures. “And” between values parts separate entries of the source, which are not always exact repeats. Identical values can stand only once.
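Also: spheroids exposed to agents for seven days.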
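For viability, T/C in this document: percent of DMSO vehicle control luminescence viability.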

On to `Cn1ncnc1C1c2n[nH]c(=O)c3cc(F)cc(c23)NC1c1ccc(F)cc1` (stereo unspecified), for which the 50% inhibitory concentration (IC50) was > 100 nM. The viability, T/C (compound 0.000316 µM) is 102% and 101%. Besides, the viability, T/C (compound 0.001 µM) was 97.6% and 112%. For the same molecule, the viability, T/C (compound 0.00316 µM) was 95.6% and 91.6%. Further, where the note is “compound 0.01 µM”, the viability, T/C is 96.3% and 103%. Moreover, the viability, T/C (compound 0.0316 µM) was 91.7% and 89.2%. Also, for the setting “compound 0.1 µM”, the viability, T/C is 86.4% and 98%.
Turning to `NS(=O)(=O)OCC1CC(n2ccc3c(NC4CCc5ccccc54)ncnc32)CC1O` (stereo unspecified), the IC50 was 31.9 nM and 67 nM. Moreover, the viability, T/C (compound 0.00949 µM) was 79% and 92.2%. Also, where the note is “compound 0.03 µM”, the viability, T/C is 51.8% and 75%. For the same molecule, under “compound 0.0949 µM”, the viability, T/C is 24.6% and 38.1%. Moreover, for the setting “compound 0.3 µM”, the viability, T/C is 16.3% and 20.5%. Besides, the viability, T/C (compound 0.949 µM) was 14.1% and 15.6%. Moreover, under “compound 3 µM”, the viability, T/C was 9.5% and 9.51%.
Turning to `Nc1ccccc1NC(=O)c1ccc(CNC(=O)OCc2cccnc2)cc1`, the IC50 is 324 nM and 508 nM. For the same molecule, the viability, T/C (compound 0.00949 µM) is 105% and 117%. Moreover, the viability, T/C (compound 0.03 µM) is 102% and 112%. Besides, the viability, T/C (compound 0.0949 µM) is 83.6% and 104%. The viability, T/C (compound 0.3 µM) is 56.4% and 70.6%. For the same molecule, the viability, T/C (compound 0.949 µM) was 11.1% and 25.3%. The viability, T/C (compound 3 µM) was 0.41% and 0.46%.
As to `Nc1ccn(C2OC(CO)C(O)C2(F)F)c(=O)n1` (stereo unspecified), the IC50 was 71.1 nM and 96.5 nM. Besides, where the note is “compound 0.000949 µM”, the viability, T/C was 106% and 95.4%. Moreover, the viability, T/C (compound 0.003 µM) was 112% and 89%. In addition, the viability, T/C (compound 0.00949 µM) is 97.3% and 98.3%. In addition, where the note is “compound 0.03 µM”, the viability, T/C is 73.4% and 89.6%. For the setting “compound 0.0949 µM”, the viability, T/C was 43% and 50.5%. The viability, T/C (compound 0.3 µM) is 12% and 17.5%.
`Nc1ncn(C2CC(O)C(CO)O2)c(=O)n1` (stereo unspecified): the IC50 is > 1000 nM. In addition, the viability, T/C (compound 0.00316 µM) was 99.5% and 107%. Further, under “compound 0.01 µM”, the viability, T/C is 103% and 102%. In addition, the viability, T/C (compound 0.0316 µM) was 96.7% and 96.2%. The viability, T/C (compound 0.1 µM) was 81.8% and 84.8%. The viability, T/C (compound 0.316 µM) was 79% and 74.5%. Moreover, under “compound 1 µM”, the viability, T/C was 64.4% and 52.7%.
Regarding `Nc1ncn(C2CC(O)C(CO)S2)c(=O)n1` (stereo unspecified), the half-inhibitory concentration (IC50) was 226 nM and > 300 nM. Besides, the viability, T/C (compound 0.000949 µM) is 103% and 99.3%. Further, the viability, T/C (compound 0.003 µM) was 105% and 110%. Further, for the setting “compound 0.00949 µM”, the viability, T/C is 104% and 105%. In addition, the viability, T/C (compound 0.03 µM) was 93.2% and 90.9%. Besides, the viability, T/C (compound 0.0949 µM) is 77.6% and 73.8%. In addition, the viability, T/C (compound 0.3 µM) was 41.2% and 53.5%.
As for `O=C(C=Cc1cccc(S(=O)(=O)Nc2ccccc2)c1)NO`, the IC50 is > 3000 nM and 619 nM. For the same molecule, for the setting “compound 0.00949 µM”, the viability, T/C was 114%. The viability, T/C (compound 0.03 µM) was 108% and 119%. Moreover, the viability, T/C (compound 0.0949 µM) was 91.1% and 104%. For the same molecule, the viability, T/C (compound 0.3 µM) was 48.3% and 70.4%. The viability, T/C (compound 0.949 µM) is 10.4% and 38.4%.
For the molecule `O=C(C=Cn1cnc(-c2cc(C(F)(F)F)cc(C(F)(F)F)c2)n1)NNc1cnccn1`, the viability, T/C (compound 0.00316 µM) is 44% and 57%; the viability, T/C (compound 0.01 µM) was 36.4% and 61.1%; the viability, T/C (compound 0.0316 µM) was 40.2% and 68%; the viability, T/C (compound 0.1 µM) is 31.9% and 73.8%; the viability, T/C (compound 0.316 µM) is 15.7% and 36.3%; the viability, T/C (compound 1 µM) is 11.8% and 16.6%.
`O=C(c1cc(Cc2n[nH]c(=O)c3ccccc23)ccc1F)N1CCN(C(=O)C2CC2)CC1`: the concentration for half-maximal inhibition (IC50) is > 10000 nM. Also, the viability, T/C (compound 0.0316 µM) was 95.7% and 102%. Further, the viability, T/C (compound 0.1 µM) was 103% and 100%. For the setting “compound 0.316 µM”, the viability, T/C was 100% and 104%. Moreover, the viability, T/C (compound 1 µM) is 100% and 97.1%. Where the note is “compound 3.16 µM”, the viability, T/C was 90.8% and 96.1%. The viability, T/C (compound 10 µM) is 55.5% and 78.5%.

The values are drawn from PubChem BioAssay AID1918937 (Molecular Pharmacology Branch, DTP, NCI, 2023).
